Several values for one entry are separate records, joined by “and”; a condition that tells them apart may be missing. Identical values can stand only once. Toxic doses and inconclusive results are not listed. Rule as the data show it: active = T/C of 150% or more; inactive = T/C below 125%. Peptide text beside a SMILES is read from it. * marks the point of attachment. Cbz = O=C(OCc1ccccc1)*; Bn = c1ccc(C*)cc1
System: L1210 leukemia ip in BDF1 mice, survival T/C
Assay: NCI In Vivo Anticancer Drug Screen. Data for tumor model L1210 Leukemia (intraperitoneal) in B6D2F1 (BDF1) mice
Settings: endpoint: mean survival time, higher = longer survival
Outline: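 Ratio derived from survival: compound-dosed mice over vehicle-dosed mice, all bearing a transplantable tumor.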

[1] = dose: 100.0 mg/kg/injection, schedule: Q04DX002 (ip), vehicle: saline with Tween-80
[2] = dose: 200.0 mg/kg/injection, schedule: Q04DX002 (ip), vehicle: saline with Tween-80
[3] = dose: 400.0 mg/kg/injection, schedule: Q04DX002 (ip), vehicle: saline with Tween-80
[4] = dose: 100.0 mg/kg/injection, schedule: Q01DX001 (ip), vehicle: saline
[5] = dose: 200.0 mg/kg/injection, schedule: Q01DX001 (ip), vehicle: saline
[6] = dose: 400.0 mg/kg/injection, schedule: Q01DX001 (ip), vehicle: saline
[7] = dose: 100.0 mg/kg/injection, schedule: Q04DX002 (ip), vehicle: Klucel (hydroxypropylcellulose) (HPC)
[8] = dose: 200.0 mg/kg/injection, schedule: Q04DX002 (ip), vehicle: Klucel (hydroxypropylcellulose) (HPC)
[9] = dose: 400.0 mg/kg/injection, schedule: Q04DX002 (ip), vehicle: Klucel (hydroxypropylcellulose) (HPC)
[10] = dose: 100.0 mg/kg/injection, schedule: Q01DX001 (ip), vehicle: carboxymethylcellulose (CMC)
[11] = dose: 200.0 mg/kg/injection, schedule: Q01DX001 (ip), vehicle: carboxymethylcellulose (CMC)
[12] = dose: 200.0 mg/kg/injection, schedule: Q04DX003 (ip), vehicle: Klucel (hydroxypropylcellulose) (HPC)
[13] = dose: 400.0 mg/kg/injection, schedule: Q01DX001 (ip), vehicle: carboxymethylcellulose (CMC)
[14] = dose: 100.0 mg/kg/injection, schedule: Q01DX009 (ip), vehicle: saline with Tween-80
[15] = dose: 100.0 mg/kg/injection, schedule: Q04DX003 (ip), vehicle: saline with Tween-80
[16] = dose: 200.0 mg/kg/injection, schedule: Q01DX009 (ip), vehicle: saline with Tween-80
[17] = dose: 200.0 mg/kg/injection, schedule: Q04DX003 (ip), vehicle: saline with Tween-80
[18] = dose: 400.0 mg/kg/injection, schedule: Q04DX003 (ip), vehicle: saline with Tween-80
[19] = dose: 100.0 mg/kg/injection, schedule: Q04DX003 (ip), vehicle: Klucel (hydroxypropylcellulose) (HPC)
[20] = dose: 400.0 mg/kg/injection, schedule: Q04DX003 (ip), vehicle: Klucel (hydroxypropylcellulose) (HPC)

Measured: T/C

CCCCNC(=O)n1nnc2ccccc21
inactive: [1] 100 % of control and 103 % of control | [2] 105 % of control and 92 % of control | [3] 96 % of control and 116 % of control

COC1OC(O)C(NC(=O)C(F)(F)F)CC1O (stereo not drawn)
inactive: dose: 50.0 mg/kg/injection, schedule: Q01DX001 (ip), vehicle: saline 103 % of control | [4] 97 % of control | [5] 103 % of control | [6] 91 % of control

COC1OC(Cn2cc(-c3ccccc3)nn2)C(OC(C)=O)C(OC(C)=O)C1OC(C)=O (stereo not drawn)
inactive: dose: 100.0 mg/kg/injection, schedule: Q01DX005 (ip), vehicle: saline 100 % of control | dose: 200.0 mg/kg/injection, schedule: Q01DX005 (ip), vehicle: saline 96 % of control

CC(=O)OCCc1ccccc1C
inactive: [7] 112 % of control | [8] 104 % of control | [9] 101 % of control

Cc1ccc2c(ccc(/C=C/c3ccc(O)c4ncccc34)[n+]2C)c1
inactive: dose: 22.0 mg/kg/injection, schedule: Q01DX009 (ip), vehicle: Klucel (hydroxypropylcellulose) (HPC) 115 % of control | dose: 33.0 mg/kg/injection, schedule: Q01DX009 (ip), vehicle: Klucel (hydroxypropylcellulose) (HPC) 117 % of control | [10] 108 % of control | [11] 124 % of control | [12] 98 % of control | [13] 124 % of control

CC1(C)CC(=NNC2=NC=NC3=NC=NC32)CC(C)(C)N1O (stereo not drawn)
inactive: dose: 25.0 mg/kg/injection, schedule: Q04DX003 (ip), vehicle: saline 98 % of control | dose: 50.0 mg/kg/injection, schedule: Q04DX003 (ip), vehicle: saline 102 % of control | dose: 100.0 mg/kg/injection, schedule: Q04DX003 (ip), vehicle: saline 102 % of control

Cc1cc(Cl)ccc1NC(=O)c1ccc(Cl)c(Cl)c1
inactive: [14] 88 % of control | [15] 100 % of control | [16] 93 % of control | [17] 96 % of control | dose: 400.0 mg/kg/injection, schedule: Q01DX009 (ip), vehicle: saline with Tween-80 93 % of control | [18] 94 % of control

CC(C)N(C)C(C)(C)CO
inactive: dose: 100.0 mg/kg/injection, schedule: Q04DX003 (ip), vehicle: saline sonified 92 % of control | dose: 200.0 mg/kg/injection, schedule: Q04DX003 (ip), vehicle: saline sonified 106 % of control

O=C(O)CCC1NC(=O)NC1=O (stereo not drawn)
inactive: [4] 96 % of control | [5] 96 % of control | [6] 91 % of control

CC1(C)NC(C(=O)O)C(C)(C)S1 (stereo not drawn)
inactive: [4] 100 % of control | [5] 89 % of control | [6] 95 % of control

COC(=O)C(NC(=O)C(CSCc1ccccc1)NC(=O)OCc1ccccc1)C(C)C (stereo not drawn) (Cbz-Cys(Bn)-Val-OMe; configuration not given here)
inactive: [19] 95 % of control | [12] 97 % of control | [20] 95 % of control

CCCCCCCCCCCC(N)=O
inactive: dose: 100.0 mg/kg/injection, schedule: Q01DX001 (ip), vehicle: other 104 % of control | [7] 104 % of control | dose: 200.0 mg/kg/injection, schedule: Q01DX001 (ip), vehicle: other 93 % of control | [8] 110 % of control | dose: 400.0 mg/kg/injection, schedule: Q01DX001 (ip), vehicle: other 96 % of control | [9] 93 % of control

[Cl][Pb]([Cl])([c]1ccccc1)[c]1ccccc1
inactive: dose: 12.5 mg/kg/injection, schedule: Q04DX002 (ip), vehicle: Klucel (hydroxypropylcellulose) (HPC) 88 % of control | dose: 25.0 mg/kg/injection, schedule: Q04DX002 (ip), vehicle: Klucel (hydroxypropylcellulose) (HPC) 88 % of control | dose: 50.0 mg/kg/injection, schedule: Q04DX002 (ip), vehicle: Klucel (hydroxypropylcellulose) (HPC) 91 % of control

CN(C)CCC[N+]1([O-])c2ccccc2CCc2ccccc21
inactive: dose: 9.37 mg/kg/injection, schedule: Q01DX009 (ip), vehicle: saline 102 % of control | dose: 18.75 mg/kg/injection, schedule: Q01DX009 (ip), vehicle: saline 108 % of control | dose: 18.75 mg/kg/injection, schedule: Q04DX003 (ip), vehicle: saline 102 % of control | dose: 37.5 mg/kg/injection, schedule: Q01DX009 (ip), vehicle: saline 97 % of control | dose: 37.5 mg/kg/injection, schedule: Q04DX003 (ip), vehicle: saline 96 % of control | dose: 75.0 mg/kg/injection, schedule: Q01DX009 (ip), vehicle: saline 102 % of control | dose: 75.0 mg/kg/injection, schedule: Q04DX003 (ip), vehicle: saline 96 % of control | dose: 150.0 mg/kg/injection, schedule: Q04DX003 (ip), vehicle: saline 88 % of control

CCCOC(=O)COc1ccccc1
inactive: [15] 96 % of control | [17] 96 % of control | [18] 93 % of control

C=CCN1CCCCC1C1(c2ccccc2)CCCC1 (stereo not drawn)
inactive: dose: 75.0 mg/kg/injection, schedule: Q01DX001 (ip), vehicle: acid diluted with saline 92 % of control

CC(=O)Nc1c(Cl)cccc1Cl
inactive: [19] 95 % of control | [12] 108 % of control | [20] 110 % of control

Nc1ncnc2nc(-c3cccc(OCCCOc4ccccc4)c3)[nH]c12
inactive: dose: 75.0 mg/kg/injection, schedule: Q01DX001 (ip), vehicle: gum acacia 95 % of control | dose: 150.0 mg/kg/injection, schedule: Q01DX001 (ip), vehicle: gum acacia 93 % of control | dose: 300.0 mg/kg/injection, schedule: Q01DX001 (ip), vehicle: gum acacia 91 % of control

O=C1c2cc([N+](=O)[O-])ccc2-c2ccc([N+](=O)[O-])cc21
inactive: dose: 50.0 mg/kg/injection, schedule: Q01DX009 (ip), vehicle: Klucel (hydroxypropylcellulose) (HPC) 95 % of control and 90 % of control | [10] 89 % of control | dose: 100.0 mg/kg/injection, schedule: Q01DX009 (ip), vehicle: Klucel (hydroxypropylcellulose) (HPC) 109 % of control | [7] 101 % of control | [11] 87 % of control | dose: 200.0 mg/kg/injection, schedule: Q01DX009 (ip), vehicle: Klucel (hydroxypropylcellulose) (HPC) 98 % of control and 102 % of control | [8] 113 % of control | [13] 97 % of control | [9] 89 % of control

Nc1ncnc2nc(-c3ccc(SCc4ccccc4)cc3)[nH]c12
inactive: dose: 50.0 mg/kg/injection, schedule: Q01DX009 (ip), vehicle: saline with Tween-80 93 % of control and 89 % of control | dose: 100.0 mg/kg/injection, schedule: Q01DX001 (ip), vehicle: saline with Tween-80 91 % of control | [14] 99 % of control and 103 % of control and 104 % of control | [1] 103 % of control | dose: 200.0 mg/kg/injection, schedule: Q01DX001 (ip), vehicle: saline with Tween-80 87 % of control | [16] 96 % of control and 103 % of control and 86 % of control | [2] 97 % of control and 100 % of control | dose: 400.0 mg/kg/injection, schedule: Q01DX001 (ip), vehicle: saline with Tween-80 91 % of control | [3] 94 % of control and 100 % of control

CC(=O)c1cc2cc(Cl)cc(Cl)c2oc1=O
inactive: [14] 94 % of control | [1] 95 % of control | [16] 91 % of control | [2] 100 % of control | [3] 92 % of control
